Measurements taken from patent publication US20130203084A1, “SPECIFIC DETECTION OF HUMAN CHORIONIC GONADOTROPIN BETA SUBUNIT TYPE II PRODUCED BY TROPHOBLASTIC AND NEOPLASTIC CELLS” (Universite Paris Descartes, priority 2010, published 2013).

System: binding of 125I-HCGβ to monoclonal antibody FBT11-II
Experiment: Competitive inhibition assay with synthetic peptides (125I-HCGβ tracer)
Details: increasing concentrations of unlabeled peptide; 4° C. for 18 h; FIG. 2
Protocol: Competitive inhibition assays were performed as previously described (20). Briefly, ^125I labelled HCGβ was employed as the tracer. All experiments were performed in 50 mM phosphate buffer, pH 7.5, containing 154 mM NaCl, 0.02% sodium azide, and 1% bovine serum albumin. First, we determined the dilution of FBT11-II which produced a 50% binding to ^125I-HCGβ (30,000 cpm) in the absence of peptide. Then, competitive inhibition assays were performed with the defined dilution of antibody. Displacement curves were generated in the presence of increasing concentrations of unlabeled peptides as follows: 100 μl of ^125I—HCGIβ, 100 μl of monoclonal antibody, and 50 μl of the competitive inhibitor were incubated simultaneously at 4° C. for 18 h. The antigen-antibody complex was then precipitated by adding normal human serum diluted (1:3) in phosphate buffer (100 μl) and 1 ml of 20% polyethylene glycol. After centrifugation, the pellet was counted.
Since it was previously shown that FBT11 recognizes residues 1 through 7 and 82 through 92 of the free HCGβ subunit (20), in this study we examined whether the differences in the N-terminal sequence of HCGβ altered the recognition of FBT11-II. We performed inhibition assays with peptides spanning residues 1 through 7 to determine mAb FBT11-II specificity. We used three peptides analogous to sequences 1-7 of HCGβ encoded by type I gene (SREMLRP, SEQ ID NO: 4), 1-7 of HCGβ encoded by type II genes (SKEPLRP, SEQ ID NO: 3) and 1-7 of LHβ (SREPLRP, SEQ ID NO: 5) (FIG. 2). First, we determined the dilution of FBT11-II which produced a 50% binding to ^125I-HCGβ in the absence of peptide. Then, competitive inhibition assays were performed with the defined dilution of antibody. Displacement curves were generated in the presence of increasing concentrations of unlabeled peptides.

| Substance | Inhibition of 125I-HCGβ binding to antibody FBT11-II (displacement of bound tracer) |
| --- | --- |
| SKEPLRP (Synthetic 7-mer peptides corresponding to residues 1 through 7 of HCGbeta encoded by type II genes beta3, beta5 and beta8) | highest potency |
| SREMLRP (Synthetic 7-mer peptides corresponding to residues 1 through 7 of HCGbeta encoded by type I gene beta7) | unable to inhibit |
| SREPLRP (Synthetic 7-mer peptides corresponding to residues 1 through 7 of the LHbeta gene) | to a lesser degree than SKEPLRP |
